Values after ≈ are worked out from the molar mass of the structure shown.
Key:
Staph.aureus A 2000 [1] = test: micro serial dilution test; type: cell-based, Staphylococcus aureus; details: Staphylococcus aureus, A2000, 18 h, micro serial dilution (in brackets), about 18 hours, 30° C. or 37° C.; read-out: minimal inhibitory concentration (MIC)
Staph.aureus A 2001 [2] = test: agar serial dilution test; type: cell-based, Staphylococcus aureus; details: Staphylococcus aureus, A2001, 24 h, agar serial dilution, 24 hours, 37° C.; read-out: minimal inhibitory concentration (MIC)
Kleb.pneum. A 809 = test: agar serial dilution test; type: cell-based, Klebsiella pneumoniae; details: Klebsiella pneumoniae; agar serial dilution, 24 hours, 37° C.; read-out: minimal inhibitory concentration (MIC)
Bruc. Suis A 2126 = test: agar serial dilution test; type: cell-based; details: Brucella suis, 24 h, read-out: minimal inhibitory concentration (MIC)
Staph.aureus A 2001 [3] = test: micro serial dilution test; type: cell-based, Staphylococcus aureus; details: Staphylococcus aureus, A2001, 18 h, micro serial dilution (in brackets), about 18 hours, 30° C. or 37° C.; read-out: minimal inhibitory concentration (MIC)
Prot.mirab. H 3 = test: agar serial dilution test; type: cell-based, Proteus mirabilis; details: Proteus mirabilis; agar serial dilution, 24 hours, 37° C.; read-out: minimal inhibitory concentration (MIC)
Dipl.pneum. L 54 = test: agar serial dilution test; type: cell-based, Diplococcus pneumoniae; details: Streptococcus pneumoniae; agar serial dilution, 24 hours, 37° C.; read-out: minimal inhibitory concentration (MIC)
Staph.aureus A 321 = test: agar serial dilution test; type: cell-based, Staphylococcus aureus; details: Staphylococcus aureus, A321, 24 h, agar serial dilution, 24 hours, 37° C.; read-out: minimal inhibitory concentration (MIC)
Strep.haem A 1088 = test: agar serial dilution test; type: cell-based, Streptococcus haemolyticus; details: Streptococcus, A1088, 24 hours, 37° C., read-out: minimal inhibitory concentration (MIC)
Pseud.aerug. 2396 = test: agar serial dilution test; type: cell-based; details: agar serial dilution, 24 hours, 37° C.; read-out: minimal inhibitory concentration (MIC)
Actinob.equ. T 3 = test: agar serial dilution test; type: cell-based; details: 24 hours, 37° C., read-out: minimal inhibitory concentration (MIC)
[4] = test system: Pseud.aerug. Wyeth A 1058; test: agar serial dilution test; type: cell-based; details: agar serial dilution, 24 hours, 37° C.; read-out: minimal inhibitory concentration (MIC)
Past.multo. A 723 = test: agar serial dilution test; type: cell-based, Pasteurella multocida; details: Pasteurella multocida; agar serial dilution, 24 hours, 37° C.; read-out: minimal inhibitory concentration (MIC)
Staph.aureus A 355 [5] = test: micro serial dilution test; type: cell-based, Staphylococcus aureus; details: Staphylococcus aureus, A355; micro serial dilution (in brackets), about 18 hours, 30° C. or 37° C.; penicillinase-producing strain; read-out: minimal inhibitory concentration (MIC)
Staph.aureus A 355 [6] = test: agar serial dilution test; details: Staphylococcus aureus, A355, 24 h, read-out: minimal inhibitory concentration (MIC), agar serial dilution, 24 hours, 37° C.; penicillinase-producing strain
Pseud.aerug. H 10 = test: agar serial dilution test; type: cell-based; details: agar serial dilution, 24 hours, 37° C.; read-out: minimal inhibitory concentration (MIC)
Strep. faec. L 80 = test: agar serial dilution test; type: cell-based, Streptococcus faecalis; details: Enterococcus faecalis; agar serial dilution, 24 hours, 37° C.; read-out: minimal inhibitory concentration (MIC)
Salm.dubl. P 43 = test: agar serial dilution test; type: cell-based, Salmonella dublin; details: Salmonella enterica; agar serial dilution, 24 hours, 37° C.; read-out: minimal inhibitory concentration (MIC)
Prot.morg. 2241 = test: agar serial dilution test; type: cell-based; details: 24 h, agar serial dilution, 24 hours, 37° C.; read-out: minimal inhibitory concentration (MIC)
Haem.Suis A 2096 = test: micro serial dilution test; type: cell-based; details: micro serial dilution (in brackets), about 18 hours, 30° C. or 37° C.; read-out: minimal inhibitory concentration (MIC)
Prot.mirab. A 1200 = test: agar serial dilution test; type: cell-based, Proteus mirabilis; details: Proteus mirabilis, 24 h, agar serial dilution, 24 hours, 37° C.; read-out: minimal inhibitory concentration (MIC)
Prot.mirab. L 93 = test: agar serial dilution test; type: cell-based, Proteus mirabilis; details: Proteus mirabilis; agar serial dilution, 24 hours, 37° C.; read-out: minimal inhibitory concentration (MIC)
Prot.rettg. A 821 [7] = test: agar serial dilution test; type: cell-based, Proteus rettgeri; details: Providencia rettgeri, 24 h, agar serial dilution, 24 hours, 37° C.; read-out: minimal inhibitory concentration (MIC)
Salm.typh. R 172 = test: agar serial dilution test; type: cell-based; details: 24 h, read-out: minimal inhibitory concentration (MIC)
Staph.aureus A 2000 [8] = test: agar serial dilution test; type: cell-based, Staphylococcus aureus; details: Staphylococcus aureus, A2000, 24 h, agar serial dilution, 24 hours, 37° C.; read-out: minimal inhibitory concentration (MIC)
Bac.Subt.ATCC 6633 = test: agar serial dilution test; type: cell-based, Bacillus subtilis; details: Bacillus subtilis, ATCC6633, 24 h, agar serial dilution, 24 hours, 37° C.; read-out: minimal inhibitory concentration (MIC)
Esch.coli U 20 = test: agar serial dilution test; type: cell-based, Escherichia coli; details: Escherichia coli, U20; agar serial dilution, 24 hours, 37° C.; read-out: minimal inhibitory concentration (MIC)
Shig.equir. T 3 = test: agar serial dilution test; type: cell-based; details: 24 h, 37° C., read-out: minimal inhibitory concentration (MIC)
Haem.infl. A 1030 [9] = test: micro serial dilution test; type: cell-based; details: 18 h, micro serial dilution (in brackets), about 18 hours, 30° C. or 37° C.; read-out: minimal inhibitory concentration (MIC)
Bruc.melit. A 488 = test: microbe, parasite or virus in culture; type: cell-based; details: Brucella melitensis, 24 h, read-out: minimal inhibitory concentration (MIC)
Haem.infl. A 1030 [10] = test: agar serial dilution test; type: cell-based; details: 24 hours, 37° C., read-out: minimal inhibitory concentration (MIC)
Strep.haem. A 266 = test: agar serial dilution test; type: cell-based, Streptococcus haemolyticus; details: Streptococcus; agar serial dilution, 24 hours, 37° C.; read-out: minimal inhibitory concentration (MIC)
Salm.typh. R 127 = test: agar serial dilution test; type: cell-based; details: 24 h, 37° C., read-out: minimal inhibitory concentration (MIC)
Prot.rettg. A 821 [11] = test: micro serial dilution test; type: cell-based, Proteus rettgeri; details: Providencia rettgeri; micro serial dilution (in brackets), about 18 hours, 30° C. or 37° C.; read-out: minimal inhibitory concentration (MIC)
pKa determined in water = type: physicochemical

| SMILES | MIC (Staph.aureus A 2000 [1]) [µg/mL] | MIC (Staph.aureus A 2001 [2]) [µg/mL] | MIC (Kleb.pneum. A 809) [µg/mL] | MIC (Staph.aureus A 2001 [3]) [µg/mL] | MIC (Prot.mirab. H 3) [µg/mL] | MIC (Dipl.pneum. L 54) [µg/mL] | MIC (Staph.aureus A 321) [µg/mL] | MIC (Pseud.aerug. 2396) [µg/mL] | MIC [4] [µg/mL] | MIC (Past.multo. A 723) [µg/mL] | MIC (Staph.aureus A 355 [6]) [µg/mL] | MIC (Pseud.aerug. H 10) [µg/mL] | MIC (Strep. faec. L 80) [µg/mL] | MIC (Salm.dubl. P 43) [µg/mL] | MIC (Prot.morg. 2241) [µg/mL] | MIC (Prot.mirab. L 93) [µg/mL] | MIC (Prot.rettg. A 821 [7]) [µg/mL] | MIC (Staph.aureus A 2000 [8]) [µg/mL] | MIC (Bac.Subt.ATCC 6633) [µg/mL] | MIC (Esch.coli U 20) [µg/mL] | also measured |
| --- | --- | --- | --- | --- | --- | --- | --- | --- | --- | --- | --- | --- | --- | --- | --- | --- | --- | --- | --- | --- | --- |
| CCc1nc(CC(=O)N[C@@H]2C(=O)N3C(C(=O)O)=C(CSc4nnc(C)s4)CS[C@H]23)no1 [41 A, Sodium 7-[5-ethyl-1,2,4-oxadiazol-3-yl-acetamido]-3-[5-methyl-1,3,4-thiadiazol-2-yl-mercaptomethyl]-3-cephem-4-carboxylate] | 0.23 | 0.5 | 6 | 0.15 | 100 | 0.75 | 0.25 | 100 | 100 | 1.5 | 0.75 | 100 | 50 | 12.5 | 100 | 6 | 1.5 | 0.5 | 0.25 | 3 | MIC (Bruc. Suis A 2126): 6 µg/mL; MIC (Strep.haem A 1088): 0.06 µg/mL; MIC (Actinob.equ. T 3): 12.5 µg/mL; MIC (Staph.aureus A 355 [5]): 0.3 µg/mL; MIC (Haem.Suis A 2096): 15 µg/mL; MIC (Prot.mirab. A 1200): 100 µg/mL; MIC (Salm.typh. R 172): 50 µg/mL |
| CC1(C)S[C@@H]2[C@H](NC(=O)[C@H](N)c3ccccc3)C(=O)N2[C@H]1C(=O)O [Ampicillin, reference compound] |  | 1 (≈ 2.86 µM) | 25 (≈ 71.5 µM) |  | 0.9 (≈ 2.58 µM) | 0.06 (≈ 0.172 µM) | 0.12 (≈ 0.343 µM) | 12.5 (≈ 35.8 µM) | > 100 | 0.25 (≈ 0.715 µM) | 6 (≈ 17.2 µM) | 125 (≈ 358 µM) | 1 (≈ 2.86 µM) | 1.5 (≈ 4.29 µM) | 12.5 (≈ 35.8 µM) | 0.15 (≈ 0.429 µM) | 3 (≈ 8.59 µM) | 1.5 (≈ 4.29 µM) | 0.03 (≈ 0.0859 µM) | 3 (≈ 8.59 µM) | MIC (Shig.equir. T 3): 1 µg/mL (≈ 2.86 µM); MIC (Haem.infl. A 1030 [9]): 0.5 µg/mL (≈ 1.43 µM); MIC (Bruc.melit. A 488): 1 µg/mL (≈ 2.86 µM); MIC (Haem.infl. A 1030 [10]): < 125 µg/mL; MIC (Strep.haem. A 266): < 0.015 µg/mL |
| Cc1nnc(SCC2=C(C(=O)O)N3C(=O)[C@@H](NC(=O)Cn4cnnn4)[C@H]3SC2)s1 [Cephazolin, reference compound] | 0.9 (≈ 1.98 µM) | 0.5 (≈ 1.1 µM) | 1.5 (≈ 3.3 µM) | 0.45 (≈ 0.99 µM) | 6 (≈ 13.2 µM) | 0.25 (≈ 0.55 µM) | 0.25 (≈ 0.55 µM) | > 100 | > 100 | 1.5 (≈ 3.3 µM) | 1.5 (≈ 3.3 µM) | > 100 | 12.5 (≈ 27.5 µM) | 1.5 (≈ 3.3 µM) | 25 (≈ 55 µM) | 1.5 (≈ 3.3 µM) |  | 0.75 (≈ 1.65 µM) | 0.25 (≈ 0.55 µM) | 1.5 (≈ 3.3 µM) | MIC (Salm.typh. R 127): 3 µg/mL (≈ 6.6 µM); MIC (Prot.rettg. A 821 [11]): 1.2 µg/mL (≈ 2.64 µM); MIC (Staph.aureus A 355 [5]): 0.6 µg/mL (≈ 1.32 µM); MIC (Prot.mirab. A 1200): 6 µg/mL (≈ 13.2 µM) |
| Cc1noc(CC(=O)O)n1 [Example 1, 3-methyl-1,2,4-oxadiazol-5-yl-acetic acid] |  |  |  |  |  |  |  |  |  |  |  |  |  |  |  |  |  |  |  |  | pKa (pKa determined in water): 3.64 |
| Cc1nc(CC(=O)O)no1 [Example 4, 5-methyl-1,2,4-oxadiazol-3-yl-acetic acid] |  |  |  |  |  |  |  |  |  |  |  |  |  |  |  |  |  |  |  |  | pKa (pKa determined in water): ~3.4 |
| CC1(C)S[C@@H]2[C@H](NC(=O)Cc3nc(-c4c(Cl)cccc4Cl)no3)C(=O)N2[C@H]1C(=O)O [Example 11A, 6-{[3-(2,6-dichlorophenyl)-1,2,4-oxadiazol-5-yl]-acetamido}penicillanic acid] |  |  | > 100 |  | > 100 | 3 (≈ 6.37 µM) | 0.06 (≈ 0.127 µM) | > 100 | > 100 | 3 (≈ 6.37 µM) | 3 (≈ 6.37 µM) | > 100 | 25 (≈ 53 µM) | > 100 | > 100 | > 100 | > 100 | 3 (≈ 6.37 µM) | 0.06 (≈ 0.127 µM) | > 100 | MIC (Shig.equir. T 3): 25 µg/mL (≈ 53 µM); MIC (Bruc.melit. A 488): 3 µg/mL (≈ 6.37 µM); MIC (Haem.infl. A 1030 [10]): 100 µg/mL (≈ 212 µM); MIC (Strep.haem. A 266): 1 µg/mL (≈ 2.12 µM) |

From patent US4160829A, “Antibacterial 1,2,4-oxadiazolylacetamido cephalosporins” (Gist-Brocades N.V., priority 1972, dated 1979)
